*1 amine or outer side, *2 acyl side, *3 side chain or, on linkers, in order; H or OH if unused. Where a SMILES comes first, the peptide text is derived from it. Bridges are numbered along the chain shown (N, C = ends). [ ]: non-standard residue; d: D form. TATA = O=C(CC[*:1])N1CN(C(=O)CC[*:2])CN(C(=O)CC[*:3])C1; tBuAla = CC(C)(C)C[C@H](N)C(=O)O
The compounds below were run against TREM2 extracellular domain (ECD) (residues 19-131, C-terminally biotinylated, deglycosylated or glycosylated) (Homo sapiens, UniProt Q9NZC2) (assay: biochemical). Conditions: Human BLI (Kd; nM) (deglycosylated), Table 4A; deglycosylated human TREM2 ECD; steady-state KD, 25° C.
Chain of TREM2 extracellular domain (ECD) (residues 19-131, C-terminally biotinylated, deglycosylated or glycosylated) (Q9NZC2 19-131): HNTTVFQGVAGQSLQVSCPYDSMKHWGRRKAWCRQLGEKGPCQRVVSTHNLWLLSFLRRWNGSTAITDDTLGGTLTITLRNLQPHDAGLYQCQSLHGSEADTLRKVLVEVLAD
Experimental: Bio-layer interferometry was performed on an Octet RED384® system (Sartorius) at 25° C. in a buffer containing 50 mM HEPES (pH 7.5), 150 mM NaCl and 0.1% Tween. TREM2 extracellular domain (ECD) (residues 19-131, C-terminally biotinylated, deglycosylated or glycosylated) was loaded onto Superstreptavidin biosensors (SSA, 18-5070, Sartorius) at 0.0125 mg/ml for 300 s. Bicycle peptides (10 mM in DMSO) were dispensed into 384-Well Tilted-Bottom Plates (18-5076, Sartorius) using an Echo liquid handler giving a final DMSO concentration of 0.125% in all wells including control wells. Association of defined concentrations of bicyclic peptide (0-12.5 μM, 1:2 dilutions for 7 points) was recorded over 120 s followed by dissociation in buffer over 120 s. Reference wells containing no bicycle peptides and reference sensors loaded with an unrelated protein (His-tagged MLLT3a) were subjected to the same assay protocol and double reference subtraction was used for processing to account for non-specific binding. Traces were analysed using Octet Software (Version 11.0). Association and dissociation curves were globally fit and the response at equilibrium (Req) plotted against concentration to obtain steady-state KD values.
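Note: Bio-layer interferometry in 50 mM HEPES pH 7.5 with 150 mM NaCl and 0.1% Tween, double-referenced with blank wells and unrelated-protein sensors, equilibrium response fitted versus concentration.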

Row | SMILES | Kd [nM]
1 | CC(=O)N[C@H]1CSCCC(=O)N2CN3CN(C2)C(=O)CCSC[C@H](NC(=O)[C@H](Cc2ccc(O)cc2)NC(=O)[C@H](CCC(=O)O)NC(=O)[C@H](CO)NC1=O)C(=O)N[C@@H](Cc1ccccc1)C(=O)N[C@@H](Cc1c[nH]c2cc(Cl)ccc12)C(=O)N1CCC[C@H]1C(=O)N[C@@H](Cc1ccccc1)C(=O)N[C@@H](Cc1ccc(O)cc1)C(=O)N[C@@H](Cc1c[nH]cn1)C(=O)N[C@H](C(N)=O)CSCCC3=O [BCY19671, Ac-(SEQ ID NO: 42)] | 1000
2 | C[C@H](N)C(=O)N[C@H]1CSCCC(=O)N2CN3CN(C2)C(=O)CCSC[C@H](NC(=O)[C@H](Cc2ccc(O)cc2)NC(=O)[C@H](CC(N)=O)NC(=O)[C@H]([C@@H](C)O)NC1=O)C(=O)N[C@@H](Cc1ccccc1)C(=O)N[C@@H](Cc1c[nH]c2ccccc12)C(=O)N1CCC[C@H]1C(=O)N[C@@H](Cc1ccccc1)C(=O)N[C@@H](Cc1c[nH]c2ccccc12)C(=O)N[C@@H](CO)C(=O)N[C@H](C(=O)N[C@@H](C)C(N)=O)CSCCC3=O [BCY19769, A-(SEQ ID NO: 11)-A] (H-ACTNYCFWPFWSCA-NH2; linker 2-6-13 via TATA) | 920
3 | CC(=O)N[C@H]1CSCCC(=O)N2CN3CN(C2)C(=O)CCSC[C@H](NC(=O)[C@H](Cc2ccc(O)cc2)NC(=O)[C@H](CCC(=O)O)NC(=O)[C@H](CO)NC1=O)C(=O)N[C@@H](Cc1ccccc1)C(=O)N[C@@H](Cc1c[nH]c2ccccc12)C(=O)N1CCC[C@H]1C(=O)N[C@@H](Cc1ccccc1)C(=O)N[C@@H](Cc1ccc(O)cc1)C(=O)N[C@@H](Cc1c[nH]cn1)C(=O)N[C@H](C(N)=O)CSCCC3=O [BCY18217, Ac-(SEQ ID NO: 1)] | 900
4 | C[C@H](N)C(=O)N[C@H]1CSCCC(=O)N2CN3CN(C2)C(=O)CCSC[C@H](NC(=O)[C@H](Cc2ccc(O)cc2)NC(=O)[C@H](CC(N)=O)NC(=O)[C@H]([C@@H](C)O)NC1=O)C(=O)N[C@@H](Cc1ccccc1)C(=O)N[C@@H](Cc1c[nH]c2ccccc12)C(=O)N1CCC[C@H]1C(=O)N[C@@H](Cc1ccccc1)C(=O)N[C@@H](CCC(N)=O)C(=O)N[C@@H](CO)C(=O)N[C@H](C(=O)N[C@@H](C)C(N)=O)CSCCC3=O [BCY19780, A-(SEQ ID NO: 19)-A] (H-ACTNYCFWPFQSCA-NH2; linker 2-6-13 via TATA) | 2400
5 | C[C@H](N)C(=O)N[C@H]1CSCCC(=O)N2CN3CN(C2)C(=O)CCSC[C@H](NC(=O)[C@H](Cc2ccc(O)cc2)NC(=O)[C@H](Cc2ccc(O)cc2)NC(=O)[C@H](CO)NC1=O)C(=O)N[C@@H](Cc1ccccc1)C(=O)N[C@@H](Cc1c[nH]c2ccccc12)C(=O)N1CCC[C@H]1C(=O)N[C@@H](Cc1ccccc1)C(=O)N[C@@H](CCC(N)=O)C(=O)N[C@@H](CO)C(=O)N[C@H](C(=O)N[C@@H](C)C(N)=O)CSCCC3=O [BCY19766, A-(SEQ ID NO: 8)-A] (H-ACSYYCFWPFQSCA-NH2; linker 2-6-13 via TATA; C-terminus assumed) | 1000
6 | C[C@H](N)C(=O)N[C@H]1CSCCC(=O)N2CN3CN(C2)C(=O)CCSC[C@H](NC(=O)[C@H](Cc2ccc(O)cc2)NC(=O)[C@H](CO)NC(=O)[C@H]([C@@H](C)O)NC1=O)C(=O)N[C@@H](Cc1ccccc1)C(=O)N[C@@H](Cc1c[nH]c2ccccc12)C(=O)N1CCC[C@H]1C(=O)N[C@@H](Cc1ccccc1)C(=O)N[C@@H](Cc1ccc(O)cc1)C(=O)N[C@@H](CCC(N)=O)C(=O)N[C@H](C(=O)N[C@@H](C)C(N)=O)CSCCC3=O [BCY19768, A-(SEQ ID NO: 10)-A] (H-ACTSYCFWPFYQCA-NH2; linker 2-6-13 via TATA; N-terminus and C-terminus assumed) | 900
7 | CC(C)[C@@H]1NC(=O)[C@H](C)NC(=O)[C@H](Cc2ccccc2)NC(=O)[C@@H]2CCCN2C(=O)[C@H](Cc2c[nH]c3ccccc23)NC(=O)[C@H](Cc2ccccc2)NC(=O)[C@@H]2CSCCC(=O)N3CN(CN(C3)C(=O)CCSC[C@@H](C(=O)N[C@@H](C)C(N)=O)NC1=O)C(=O)CCSC[C@H](NC(=O)[C@H](C)N)C(=O)N[C@@H]([C@@H](C)O)C(=O)N[C@@H](CC(N)=O)C(=O)N[C@@H](Cc1ccc(O)cc1)C(=O)N2 [BCY19783, A-(SEQ ID NO: 22)-A] (H-ACTNYCFWPFAVCA-NH2; linker 2-6-13 via TATA) | 2700
8 | CC(=O)N[C@@H](C)C(=O)N[C@H]1CSCCC(=O)N2CN3CN(C2)C(=O)CCSC[C@H](NC(=O)[C@H](Cc2ccc(O)cc2)NC(=O)[C@H](CCC(=O)O)NC(=O)[C@H](CO)NC1=O)C(=O)N[C@@H](Cc1ccccc1)C(=O)N[C@@H](Cc1c[nH]c2ccccc12)C(=O)N1CCC[C@H]1C(=O)N[C@@H](Cc1ccccc1)C(=O)N[C@@H](Cc1ccc(O)cc1)C(=O)N[C@@H](Cc1c[nH]cn1)C(=O)N[C@H](C(=O)N[C@@H](C)C(N)=O)CSCCC3=O [BCY18218, Ac-A-(SEQ ID NO: 1)-A] (Ac-ACSEYCFWPFYHCA-NH2; linker 2-6-13 via TATA) | 2000
9 | C[C@H](N)C(=O)N[C@H]1CSCCC(=O)N2CN3CN(C2)C(=O)CCSC[C@H](NC(=O)[C@H](Cc2ccc(O)cc2)NC(=O)[C@H](CCC(=O)O)NC(=O)[C@H](CO)NC1=O)C(=O)N[C@@H](Cc1ccccc1)C(=O)N[C@@H](Cc1c[nH]c2ccccc12)C(=O)N1CCC[C@H]1C(=O)N[C@@H](Cc1ccccc1)C(=O)N[C@@H](Cc1ccc(O)cc1)C(=O)N[C@@H](CO)C(=O)N[C@H](C(=O)N[C@@H](C)C(N)=O)CSCCC3=O [BCY17669, A-(SEQ ID NO: 2)-A] (H-ACSEYCFWPFYSCA-NH2; linker 2-6-13 via TATA) | 1200

Same assay, conditions: Human BLI (Kd; nM) (deglycosylated), Table 4B; deglycosylated human TREM2 ECD; steady-state KD, 25° C.

Row | SMILES | Kd [nM]
10 | CC(=O)N[C@H]1CSCCC(=O)N2CN3CN(C2)C(=O)CCSC[C@H](NC(=O)[C@H](Cc2ccc(O)cc2)NC(=O)[C@H](CCC(=O)O)NC(=O)[C@H](CO)NC1=O)C(=O)N[C@@H](Cc1ccccc1)C(=O)N[C@@H](Cc1c[nH]c2ccccc12)C(=O)N1CC[C@H]1C(=O)N[C@@H](Cc1ccccc1)C(=O)N[C@@H](Cc1ccc(O)cc1)C(=O)N[C@@H](Cc1c[nH]cn1)C(=O)N[C@H](C(N)=O)CSCCC3=O [BCY20068, Ac-(SEQ ID NO: 64)] | 2540
11 | CC(=O)N[C@H]1CSCCC(=O)N2CN3CN(C2)C(=O)CCSC[C@H](NC(=O)[C@H](Cc2ccc(O)cc2)NC(=O)[C@@H](C)NC(=O)[C@H](CO)NC1=O)C(=O)N[C@@H](Cc1ccccc1)C(=O)N[C@@H](Cc1c[nH]c2ccccc12)C(=O)N1CCC[C@H]1C(=O)N[C@@H](Cc1ccccc1)C(=O)N[C@@H](Cc1ccc(O)cc1)C(=O)N[C@@H](Cc1c[nH]cn1)C(=O)N[C@H](C(N)=O)CSCCC3=O [BCY20087, Ac-(SEQ ID NO: 80)] | 18000

Same assay, conditions: Human BLI (Kd; nM) glycosylated, Table 4B; glycosylated human TREM2 ECD

Row | SMILES | Kd [nM]
12 | CC(=O)N[C@H]1CSCCC(=O)N2CN3CN(C2)C(=O)CCSC[C@H](NC(=O)[C@H](Cc2ccc(O)cc2)NC(=O)[C@H](CCC(=O)O)NC(=O)[C@H](CO)NC1=O)C(=O)N[C@@H](Cc1ccccc1)C(=O)N[C@@H](Cc1c[nH]c2ccccc12)C(=O)N1CCC[C@H]1C(=O)N[C@@H](CC(C)(C)C)C(=O)N[C@@H](Cc1ccc(O)cc1)C(=O)N[C@@H](Cc1c[nH]cn1)C(=O)N[C@H](C(N)=O)CSCCC3=O [BCY20074, Ac-(SEQ ID NO: 68)] (Ac-CSEYCFWP[tBuAla]YHC-NH2; linker 1-5-12 via TATA) | 920

Source: patent US11904020B2, “Bicyclic peptide ligands specific for TREM2” (Bicycle Tx Limited, priority 2021, dated 2024)
